From patent US8507502B2, “Fused bicyclic and tricyclic pyrimidine compounds as tyrosine kinase inhibitors” (National Health Research Institutes, priority 2008, dated 2013) come the findings set out here.

The target in one test is T1, GST-EGFR-KD^L858R/T790M (Homo sapiens, UniProt P00533, L858R/T790M).
T1 construct: residues from 696 to 1022 and with L858R/T790M; made in house; host or cells: Sf9 insect cells (baculovirus)
The experiment in a line: Double mutant EGFR kinase assay (Kinase-Glo). Type of test: biochemical. Conditions: 1 μM ATP, read-out: IC50 (concentration at which activity of 50% of mutant EGFR is inhibited). A general note: In Kinase-Glo more light means more ATP remaining.

The target of a further test is T2, GST-EGFR-KD^WT (Homo sapiens, UniProt P00533).
T2 construct: 50 ng GST-EGFR-KD^WT proteins; made in house
Briefly: EGFR kinase assay (Kinase-Glo). It counts as biochemical. To be noted: 5 μM ATP, read-out: IC50 (concentration at which activity of 50% of EGFR is inhibited).

A further test relates to HCC827 cells. Briefly: HCC827 cell viability, MTS assay. Conditions: Homo sapiens, 96-h incubation, read-out: IC50 (concentration which causes 50% of the cell death). Type of test: cell-based. On the technique in general: Formazan colour is commonly taken as a measure of viable cells.
For a further test, the system named is HCC827. The experiment in a line: In vivo anticancer activity, lung cancer xenograft mice (injected with HCC827). The arrangement: species or system nude mice. To be noted: for tumor size relative to that of the vehicle controls: days 1-5 and 8-12, 22nd day post treatment. The procedure:
In vivo efficacy of the compounds of this invention was assessed using lung cancer xenograft mice (injected with HCC827), as described in Cancer Research 2004, 64, 4621-4628.
HCC827 cells were injected via s.c. in nude mice to form lung cancer xenograft mice. Mice bearing tumor with a size of ˜100 mm^3 were randomly assigned to two groups: a vehicle control group (10 mice), and a treatment group (21 mice). Of the treated mice, 21 received Compound 62 at a daily dosage of 5 mg/kg and 15 mg/kg via IV injection through the tail veins for 5 days/week for 2 consecutive weeks (days 1-5 and 8-12).

Molecules are shown by their SMILES. Where two headings read alike, the source gives them in different places.

T2 sequence (P00533 712-979 limits assumed): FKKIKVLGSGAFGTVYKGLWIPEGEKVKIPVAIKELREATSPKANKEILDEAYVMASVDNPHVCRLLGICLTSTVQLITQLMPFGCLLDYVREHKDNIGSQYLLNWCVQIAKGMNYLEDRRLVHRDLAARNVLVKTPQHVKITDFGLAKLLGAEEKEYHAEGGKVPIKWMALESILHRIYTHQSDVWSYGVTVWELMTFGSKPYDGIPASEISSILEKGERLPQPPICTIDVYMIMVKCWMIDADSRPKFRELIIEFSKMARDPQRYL
T1 sequence (P00533 696-1022 T790M/L858R): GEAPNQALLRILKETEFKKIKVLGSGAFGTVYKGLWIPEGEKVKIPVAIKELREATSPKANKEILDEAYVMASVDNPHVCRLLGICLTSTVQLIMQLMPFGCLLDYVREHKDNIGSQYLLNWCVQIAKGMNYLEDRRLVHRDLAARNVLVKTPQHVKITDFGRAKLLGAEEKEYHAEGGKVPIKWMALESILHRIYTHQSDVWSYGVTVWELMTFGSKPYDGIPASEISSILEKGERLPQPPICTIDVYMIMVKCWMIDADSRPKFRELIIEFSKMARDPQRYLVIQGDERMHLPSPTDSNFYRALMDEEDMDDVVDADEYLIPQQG
Procedure for GST-EGFR-KD^L858R/T790M: Following incubation, 50 μL Kinase-Glo Plus Reagent (Promega) was added and the mixture was incubated at 25° C. for 20 min.
Procedure for GST-EGFR-KD^WT: Following incubation, 50 μl Kinase-Glo Plus Reagent (Promega) was added and the mixture was further incubated at 25° C. for 20 min.
Procedure for HCC827 cells: HCC827 cell viability was examined by the MTS assay (Promega, Madison, Wis., USA). 1000 HCC827 cells in 100 μl RPMI1640 with 10% FBS medium were seeded in each well of a 96-well plate. After 96-h incubation with a test compound, the cells were further incubated with 20 μl of a MTS/PMS mixture (MTS/PMS ratio: 20:1) in each well of the 96-well plate for 2 h at 37° C. in a humidified incubator with 5% CO2 to allow viable cells to convert the tetrazolium salt (MTS) into formazan. The amount/concentration of formazan, which indicates the number of live cells, was determined by measuring its absorbance at 490 nm using a PerkinElmer Victor2 plate reader (PerkinElmer, Shelton, Conn., USA).

On to `C[C@@H](Nc1ncnc2sc3c(c12)CCN(C(=O)/C=C/CN(CCO)CCO)C3)c1ccccc1` [Compound 215], for which the figures for the IC50 on GST-EGFR-KD^L858R/T790M, on GST-EGFR-KD^WT and in the test on HCC827 cells were 0.5 to 2.5 µM, less than 0.059 µM and 0.001 to 0.099 µM, respectively.
For the compound `C=CS(=O)(=O)N1CCc2c(sc3ncnc(N[C@H](CO)c4ccccc4)c23)C1` [Compound 63], the values for the IC50 on GST-EGFR-KD^L858R/T790M, on GST-EGFR-KD^WT and in the test on HCC827 cells were 0.5 to 2.5 µM, 0.06 to 0.1 µM and 0.1 to 0.3 µM, respectively.
Consider `C=CC(=O)N1CCc2c(sc3ncnc(N[C@H](COCc4cccc(F)c4)c4ccccc4)c23)C1` [Compound 200], for which the figures for the IC50 on GST-EGFR-KD^L858R/T790M, on GST-EGFR-KD^WT and with HCC827 cells were 0.01 to 0.499 µM, less than 0.059 µM and 0.001 to 0.099 µM, respectively.
The corresponding values for `C=CC(=O)N1CCc2c(sc3ncnc(N[C@H](COCc4cccc(C)c4)c4ccccc4)c23)C1` [Compound 227] are 0.01 to 0.499 µM, less than 0.059 µM and 0.001 to 0.099 µM.
Regarding `C=CC(=O)N1CCc2c(sc3ncnc(NC(CCO)c4ccccc4)c23)C1` (centres unmarked) [Compound 188], the IC50 on GST-EGFR-KD^L858R/T790M lay in the range of 0.5 to 2.5 µM; on GST-EGFR-KD^WT (range given in mixed units) it was 0.101 to 0.9 µM; with HCC827 cells, 0.301 to 0.999 µM.
In the case of `C=CC(=O)N1CCc2c(sc3ncnc(N[C@H](COC)c4ccccc4)c23)C1` [Compound 185], the values for the IC50 on GST-EGFR-KD^L858R/T790M, at GST-EGFR-KD^WT and in the test on HCC827 cells were 0.01 to 0.499 µM, less than 0.059 µM and 0.001 to 0.099 µM, respectively.
Take `C=CC(=O)Nc1cccc(-c2c(-c3ccccc3)oc3ncnc(N[C@H](C)c4ccccc4)c23)c1` [Compound 239]: the IC50 on GST-EGFR-KD^L858R/T790M is 0.5 to 2.5 µM; on GST-EGFR-KD^WT (range given in mixed units), 0.101 to 0.9 µM; with HCC827 cells, 0.001 to 0.099 µM.
Consider `C=CC(=O)N1CCc2c(sc3ncnc(N[C@H](COCc4ccc(C(F)(F)F)cc4)c4ccccc4)c23)C1` [Compound 202], for which the IC50 on GST-EGFR-KD^L858R/T790M is 0.01 to 0.499 µM; at GST-EGFR-KD^WT, less than 0.059 µM; in the test with HCC827 cells it was 0.1 to 0.3 µM.
The corresponding values for `CCN(CC)C/C=C/C(=O)N1CCc2c(sc3ncnc(N[C@H](C)c4ccccc4)c23)C1` [Compound 190] are 0.5 to 2.5 µM, less than 0.059 µM and 0.001 to 0.099 µM.
With `CN(C)C/C=C/C(=O)N1CCc2c(sc3ncnc(N[C@H](COCc4ccccn4)c4ccccc4)c23)C1` [Compound 203], the IC50 on GST-EGFR-KD^L858R/T790M was 0.5 to 2.5 µM; at GST-EGFR-KD^WT, less than 0.059 µM; in the test on HCC827 cells, 0.001 to 0.099 µM.
As to `CN(C)C/C=C/C(=O)N1CCc2c(sc3ncnc(N[C@H](COCc4cccc(F)c4)c4ccccc4)c23)C1` [Compound 210], the IC50 was 0.01 to 0.499 µM on GST-EGFR-KD^L858R/T790M, less than 0.059 µM at GST-EGFR-KD^WT and 0.001 to 0.099 µM with HCC827 cells.
The corresponding values for `CC[C@@H](Nc1ncnc2sc3c(c12)CCN(C(=O)/C=C/CN(CC)CC)C3)c1ccccc1` [Compound 191] are 0.5 to 2.5 µM, less than 0.059 µM and 0.001 to 0.099 µM.
`C=CC(=O)Nc1cccc(-c2c(-c3ccccc3)oc3ncnc(N[C@H](COC(=O)C=C)c4ccccc4)c23)c1` [Compound 240]: the figures for the IC50 at GST-EGFR-KD^L858R/T790M and on GST-EGFR-KD^WT (range given in mixed units) were 0.01 to 0.499 µM and 0.101 to 0.9 µM, respectively.
Consider `C=CC(=O)N1CCc2c(sc3ncnc(N[C@H](COCc4cccc([N+](=O)[O-])c4)c4ccccc4)c23)C1` [Compound 226], for which the IC50 was 0.01 to 0.499 µM at GST-EGFR-KD^L858R/T790M, less than 0.059 µM on GST-EGFR-KD^WT and 0.001 to 0.099 µM in the test on HCC827 cells.
The corresponding values for `C=CC(=O)N1CCc2c(sc3ncnc(N[C@H](CCO)c4ccccc4)c23)C1` [Compound 176] are 0.01 to 0.499 µM, less than 0.059 µM and 0.001 to 0.099 µM.
The corresponding values for `C=CC(=O)N1CCc2c(sc3ncnc(N[C@H](CO)c4ccccc4)c23)C1` [Compound 12, 1-[4-(2-hydroxy-1-phenyl-ethylamino)-5,8-dihydro-6H-9-thia-1,3,7-triaza-fluoren-7-yl]-propenone] are 0.01 to 0.499 µM, less than 0.059 µM and 0.001 to 0.099 µM.
The corresponding values for `CNC/C=C/C(=O)N1CCc2c(sc3ncnc(N[C@H](C)c4ccccc4)c23)C1` [Compound 205] are 0.5 to 2.5 µM, less than 0.059 µM and 0.001 to 0.099 µM.
Take `C[C@@H](Nc1ncnc2sc3c(c12)CCN(C(=O)/C=C/CN(C)C)C3)c1ccccc1` [Compound 178]: the IC50 at GST-EGFR-KD^L858R/T790M was 0.5 to 2.5 µM; on GST-EGFR-KD^WT, less than 0.059 µM; with HCC827 cells, 0.001 to 0.099 µM.
The corresponding values for `CN(C)C/C=C/C(=O)N1CCc2c(sc3ncnc(N[C@H](COCc4ccccc4)c4ccccc4)c23)C1` [Compound 198] are 0.5 to 2.5 µM, less than 0.059 µM and 0.001 to 0.099 µM.
Regarding `C=CC(=O)N1CCc2c(sc3ncnc(N[C@H](COCc4ccccc4)c4ccccc4)c23)C1` [Compound 195], the IC50 on GST-EGFR-KD^L858R/T790M was 0.01 to 0.499 µM; on GST-EGFR-KD^WT, less than 0.059 µM; in the test on HCC827 cells, 0.001 to 0.099 µM.
Regarding `CN(C)C/C=C/C(=O)N1CCc2c(sc3ncnc(Nc4ccc(F)c(Cl)c4)c23)C1` [Compound 187], the IC50 at GST-EGFR-KD^L858R/T790M is 0.01 to 0.499 µM; on GST-EGFR-KD^WT, less than 0.059 µM; in the test with HCC827 cells, 0.001 to 0.099 µM.
The corresponding values for `C=CC(=O)N1CCc2c(sc3ncnc(N[C@H](C)c4ccccc4)c23)C1` [Compound 64] are 0.5 to 2.5 µM, less than 0.059 µM and 0.001 to 0.099 µM.
As for `O=C(/C=C/CN1CCCCC1)N1CCc2c(sc3ncnc(N[C@H](CO)c4ccccc4)c23)C1` [Compound 65], the IC50 at GST-EGFR-KD^L858R/T790M was 0.5 to 2.5 µM; on GST-EGFR-KD^WT it was less than 0.059 µM; with HCC827 cells, 0.001 to 0.099 µM.
The corresponding values for `O=C(/C=C/CN1CCOCC1)N1CCc2c(sc3ncnc(N[C@H](CO)c4ccccc4)c23)C1` [Compound 66] are 0.5 to 2.5 µM, less than 0.059 µM and 0.001 to 0.099 µM.
For `COc1cccc(COC[C@@H](Nc2ncnc3sc4c(c23)CCN(C(=O)/C=C/CN(C)C)C4)c2ccccc2)c1` [Compound 228], the IC50 on GST-EGFR-KD^L858R/T790M was 0.5 to 2.5 µM; at GST-EGFR-KD^WT, less than 0.059 µM; in the test on HCC827 cells it was 0.001 to 0.099 µM.
As for `C=CC(=O)N1CCc2c(sc3ncnc(N[C@H](COCc4cccc(OC)c4)c4ccccc4)c23)C1` [Compound 223], the values for the IC50 at GST-EGFR-KD^L858R/T790M, at GST-EGFR-KD^WT and in the test with HCC827 cells were 0.01 to 0.499 µM, less than 0.059 µM and 0.001 to 0.099 µM, respectively.
The corresponding values for `CN(C)C/C=C/C(=O)N1CCc2c(sc3ncnc(N[C@H](COCc4ccccc4F)c4ccccc4)c23)C1` [Compound 232] are 0.5 to 2.5 µM, less than 0.059 µM and 0.001 to 0.099 µM.
Regarding `CCN(CC)C/C=C/C(=O)N1CCc2c(sc3ncnc(N[C@H](CO)c4ccccc4)c23)C1` [Compound 75], the IC50 on GST-EGFR-KD^L858R/T790M is 0.5 to 2.5 µM; at GST-EGFR-KD^WT, less than 0.059 µM; in the test on HCC827 cells it was 0.001 to 0.099 µM.
The corresponding values for `C=CC(=O)N1CCc2c(sc3ncnc(N[C@H](CO)Cc4ccccc4)c23)C1` [Compound 193] are 0.5 to 2.5 µM, less than 0.059 µM and 0.301 to 0.999 µM.
Take `CN(C)C/C=C/C(=O)N1CCc2c(sc3ncnc(N[C@H](CO)c4ccccc4)c23)C1` [Compound 62]: the results for the IC50 on GST-EGFR-KD^L858R/T790M, on GST-EGFR-KD^WT and in the test with HCC827 cells were 0.01 to 0.499 µM, less than 0.059 µM and 0.001 to 0.099 µM, respectively. Moreover, the results for the “tumor size relative to that of the vehicle controls” value in the test on HCC827 (5 mg/kg daily IV) and in the test with HCC827 (15 mg/kg daily IV) were 39% and 23%, respectively. Further, in the test on HCC827 (5 and 15 mg/kg IV, p<0.05), the tumor growth suppression entry is recorded as “suppressed tumor growth significantly”.
For the compound `CC#CC(=O)Nc1cccc(-c2c(-c3ccccc3)oc3ncnc(N[C@H](CO)c4ccccc4)c23)c1` [Compound 241], the IC50 on GST-EGFR-KD^L858R/T790M was 0.5 to 2.5 µM; on GST-EGFR-KD^WT it was less than 0.059 µM; in the test on HCC827 cells it was 0.001 to 0.099 µM.
The corresponding values for `CN1CCN(C/C=C/C(=O)N2CCc3c(sc4ncnc(N[C@H](CO)c5ccccc5)c34)C2)CC1` [Compound 67] are 0.5 to 2.5 µM, less than 0.059 µM and 0.001 to 0.099 µM.
The corresponding values for `C[C@@H](Nc1ncnc2sc3c(c12)CCN(C(=O)/C=C/CNC1CC1)C3)c1ccccc1` [Compound 211] are 0.5 to 2.5 µM, less than 0.059 µM and 0.001 to 0.099 µM.
The corresponding values for `C=CC(=O)N1CCc2c(sc3ncnc(N[C@H](CC)c4ccccc4)c23)C1` [Compound 106] are 0.5 to 2.5 µM, less than 0.059 µM and 0.001 to 0.099 µM.
